Results on two compounds are retold here after patent US20150374784A1, “COMPOSITIONS AND METHODS FOR REDUCING GERM CELL DEATH” (Los Angeles Biomedical Research Institute at Harbor-UCLA …, priority 2014, published 2015).

Data set [1] concerns ovaries. It is filed as in vivo. The settings on record: day 14; HNG 5 mg/kg/day IP; CP 100 mg/Kg single IP. How it is done:
A mouse mammary cancer model was used which utilizes 4T1 cells transfected with the luciferase gene. Growth and size of 4T1 mammary tumors were detected by bioluminescence imaging (IVIS Luminia II, Perkin Elmer, Waltham, Mass.). Mice (n=5 to 7 per group) were inoculated with 1×10^6 4 T1 cells into the right third mammary gland, and 7 days later they were left untreated or treated with HNG (5 mg/kg/day IP), CP (100 mg/Kg single IP) or HNG+CP for 14 days. Animals were sacrificed and both ovaries were removed from each mouse on day 14 after the start of treatment. Serial 5-micrometer sections were made. Every 5th section was examined and the number of primordial, primary, and secondary follicles counted (Kim S Y, et al., 2013; Bristol-Gould S K, et al., 2006; Roti Roti E C, et al., 2012). In addition, TUNEL staining for apoptotic cells and oocytes was quantified (Perez G I, et al., 1997; Ben-Aharon I, et al., 2010).

For data set [2], the system named is IGF-1. Description: Plasma IGF-1 in mice bearing metastatic lung melanomas. The settings on record: 14 days; HNG 5 mg/kg/day IP; CP 200 mg/kg IP single injection. It is filed as in vivo, mouse.
Data set [3] relates to male germ cells. The format is in vivo. The conditions noted are these: B16 tumor-bearing mice. How it is done: A total of 25 young adult mice (10-12 weeks) were randomly divided into 5 groups (n=5 per group). Five mice were used as control. Twenty mice were inoculated intravenously with B16 murine melanoma cells (2×10^5 cells/mouse). Among these 20 tumor-inoculated mice, 5 mice received no further treatment. After one week, the remaining 15 mice were divided into 3 groups and injected with: 1) HNG daily IP (5 mg/Kg body weight) for 2 weeks; 2) CP (200 mg/Kg body weight IP single injection); 3) combined CP with HNG treatment (same doses as above). All mice were sacrificed 3 weeks after tumor inoculation, and 2 weeks after HNG and/or CP treatment. The animals were sacrificed with 5% pentobarbital (200 mg/kg body weight) IP injection after which blood was collected from the right atrium of the heart. One of the testes from each mouse was immersed fixed in Bouin's solution, and the mice were perfused with saline and subsequently perfuse-fixed with 5% glutaraldehyde in 0.05 M cacodylate buffer (pH 7.4). The lungs were dissected out and post fixed in 5% glutaraldehyde solution for 24 hours and stored in cacodylate buffer at 4° C. for the subsequent tumor count (Lue, et al., 2010; Lue, et al., 2009).

Data set [4] deals with 4T1 cells. Description: 4T1 mouse mammary cancer model, tumor size and weight. The settings on record: in vivo. How it is done:
A mouse mammary cancer model was used which utilizes 4T1 cells transfected with the luciferase gene. Growth and size of 4T1 mammary tumors were detected by bioluminescence imaging (IVIS Luminia II, Perkin Elmer, Waltham, Mass.). Mice (n=5 to 7 per group) were inoculated with 1×10^6 4 T1 cells into the right third mammary gland, and 7 days later they were left untreated or treated with HNG (5 mg/kg/day IP), CP (100 mg/Kg single IP) or HNG+CP for 14 days. Bioluminescence imaging was conducted at days 7 and 12. Animals were sacrificed and tumors were removed on day 14 after the start of treatment. Mammary tumors were smaller in CP and CP+HNG groups compared to the untreated and HNG-treated animals (Data images not shown).

The test system of data set [5] is Ki-67 antigen. As to the kind of experiment: Immunohistochemistry of lung metastases: Ki-67. The format is in vivo, mouse. The conditions noted are these: CP 200 mg/kg single IP, HNG 5 mg/kg daily IP 14 days. The method, then: Methods: Adult male mouse (n=5/group) were seeded with mouse B16 melanoma cells (100,000 cells/mouse) via tail vein on day 1. One week after melanoma cell inoculation, mice were treated either with a single intraperitoneal injection (IP) of CP (200 mg/kg), or daily IP injections of HNG (5 mg/kg), or both for 14 days. Mice were sacrificed at day 21 and lungs were fixed in formaldehyde. Immunohistochemistry was performed on lung metastases with antibodies against phosphorylated-AMPK (p-AMPK), p-4E-BP1 (downstream effector of mTOR) and Ki-67 antigen (a marker of cell proliferation).

Data set [6] concerns germ cells. As to the kind of experiment: HNG on CP-induced germ cell apoptosis in mice, 24 hours (Example 6). It is filed as in vivo, mouse. The conditions noted are these: CP 200 mg/kg/BW IP, HNG 5 mg/kg/BW IP. The method, then:
To examine the protective effects of HNG on germ cells, adult mice were treated with vehicle (control); HNG (5 mg/kg/BW, intraperitoneal injection IP); CP (200 mg/kg/BW, IP); and CP+HNG for 24 hours.

Data set [7] relates to IGF-1. Description: Plasma IGF-1 levels by ELISA after multiple doses of CP. It is filed as in vivo, mouse. The conditions noted are these: 28 days; HNG 10 mg/kg BW daily subcutaneously; CP 150 mg/kg BW IP, 6 doses. How it is done:
(§1) The objective of this study was to investigate whether HNG has protective effect on sperm output after multiple doses of CP in mice. Thirty adult male mice (C57BL/6J) were randomized into 4 groups: 1) 5 as control; 2) 5 received daily subcutaneously injection of HNG (10 mg/kg BW); 3) 10 were given 6 doses of CP (150 mg/kg BW) intraperitoneally at 5-day intervals; 4) 10 received both HNG and CP. All mice were killed at 28 days. Plasma HNG and IGF-1 levels were measured by ELISAs. The cauda epididymal sperm count was performed using a hemocytometer.
A general note: An ELISA detects its analyte on a solid surface through an enzyme-linked reagent.

For data set [8], the system named is sperm. Description: Cauda epididymal sperm count after multiple doses of CP in mice. The settings on record: 28 days; HNG 10 mg/kg BW daily subcutaneously; CP 150 mg/kg BW IP, 6 doses at 5-day intervals. The format is in vivo, mouse. The method, then: as §1
Data set [9] relates to HEK293 (normal embryonic kidney cells). Description: Autophagy induction (LC3-II, mRFP-GFP-LC3) in HEK293. The format is cell-based. From the text:
(§2) The increased level of LC3-II, a marker of autophagosome was examined by Western blot and immunocytochemistry. The increase of autophagosomes and autolysosomes in HEK293 cells stably expressing mRFP-GFP-LC3, a dual-tag reporter of autophagy, was examined following humanin treatment. In addition, the signaling pathways activated by humanin using a phospho-antibody array in SH-SY5Y cells was investigated. […] Both activation and suppression of autophagy are involved in cancer pathogenesis and treatment, depending on the context.

The test system of data set [10] is B16 (melanoma). Description: Autophagy induction in B16 (fluorescent microscopy, western blot of LC3-II). It is filed as cell-based, mouse. On the technique in general: In western blotting, separated proteins are transferred to a membrane and probed.
Data set [11] has as its system SH-SY5Y (neuroblastoma). Description: Autophagy induction in SH-SY5Y. It is filed as cell-based.
Source text: as §2

As to `O=P1(N(CCCl)CCCl)NCCCO1` (stereo not drawn) [CP, cyclophosphamide monohydrate], the “ovarian follicles in representative sections” value in data set [1] was “have less secondary, but more atretic follicles”. Further, the “plasma IGF-1 levels” value in [2] is “modestly suppressed IGF-1”; in data set [7], 182.4 ± 10.5 ng/mL. In addition, in data set [3] (2 weeks after CP 200 mg/Kg single IP), the testis weight result is “significantly decreased the testis weight”. In addition, in data set [3] (2 weeks after treatment, CP 200 mg/Kg single IP, HNG 5 mg/Kg daily IP), the “germ cell apoptosis (percent of seminiferous tubules containing apoptotic germ cells)” value was “significantly increased germ cell apoptosis”. The “mammary tumor size (bioluminescence imaging)” value in data set [4] is listed as “smaller”. Moreover, in data set [5], the “mean Ki-67 index” value is listed as 30.0±16.2. The “germ cell apoptosis (apoptotic index)” value in data set [6] was “significantly increased germ cell apoptosis in all stages of spermatogenesis”. For the same compound, in data set [8], the “cauda epididymal sperm count” value was 0.5±0.1 ×10^6/mg.

As for “MAPRGFSCLLLLTSEIDLPVKRRA [HN, 24-amino acid mitochondrial derived peptide]”, the autophagy entry in data set [9], in data set [10] and in data set [11] was “induces autophagy” each time.
